Measurements reported in US20030157182A1, “Pharmaceutical preparations and their manufacture” (priority 2000, published 2003).

Columns and labels:
[1] = Normalised Kurtosis of the particle size distribution (Microsoft Excel KURT function on Mastersizer classes); type: physicochemical; details: for Normalised Kurtosis: particle size by volume, Mastersizer 2000 classes, 0 = mesokurtic normal distribution; for normalized Kurtosis: positive = narrow size distribution
Description: The normalized Kurtosis is defined in formula (2) above and can be derived for a given particle size distribution by using any of a number of widely available statistical software packages, for example, Microsoft Excel.
A large number of data points is required to provide an accurate analysis of the Kurtosis of a particle size distribution. Indeed a true Kurtosis value would require the exact size of every particle in a distribution.
(§1) Using the Malvern Mastersizer 2000 we have examined the particle size by volume of a range of materials. The Mastersizer 2000 utilises a log-normal scale for description of particle sizes. We have then examined the data statistically to determine normalized Kurtosis by copying the particle size data into Microsoft Excel and performing the “KURT” function according to the method given in Example 1. Kurtosis values for those materials are given in Table 1 along with volume median diameters. A mesokurtic normal distribution has a normalized Kurtosis value of zero.
(iv) The results shown in Table 2 were analysed using the KURT function of Microsoft Excel which gave the normalized Kurtosis value of 6.93.

[2] = Particle size distribution by volume, Malvern Mastersizer 2000; type: physicochemical; details: for d(0.5): volume median diameter, μm
Description: as §1
(i) The active particles were suspended (using stirring and sonication) in cyclohexane with 0.1% lecithin. Sufficient active particles were used to ensure the necessary obscuration;
(ii) The suspension was placed in the wet cell of the Malvern Mastersizer 2000 and the particle size distribution was measured using an appropriate lens system;
(iii) The results were analysed using the proprietary software of the Mastersizer 2000 to produce the size distribution given in Table 2.

[3] = listed as commercial grade of paracetamol
[4] = listed as paracetamol material according to the invention

Row | SMILES | Normalised Kurtosis [1] | normalized Kurtosis [1, 3] | volume median diameter / volume median particle size [2, 3] | d(0.5) [2] | normalized Kurtosis ([1]; listed as milled paracetamol) | volume median diameter / volume median particle size ([2]; listed as milled paracetamol) | normalized Kurtosis [1] | normalized Kurtosis [1, 4] | polydispersity of particle size distribution ([2]; FIG. 2, compared to the Sigma paracetamol starting material) | volume median diameter / volume median particle size [2, 4]
1 | CC(=O)Nc1ccc(O)cc1 [Sigma Paracetamol, Paracetamol] | −0.43 | −0.43 | 19 μm | 19 µm | – | – | – | – | – | –
2 | CC(=O)Nc1ccc(O)cc1 [Paracetamol Milled Sigma, Paracetamol] | −1.10 | – | – | 12 µm | −1.1 | 12 μm | – | – | – | –
3 | CC(=O)Nc1ccc(O)cc1 [Paracetamol from Example 1, Paracetamol] | 6.93 | – | – | 21 µm | – | – | 6.93 | 6.9 | much reduced polydispersity | 12 μm
